Measurements as given in US20240189283A1, “L-ERGOTHIONEINE-CONTAINING COMPOSITION” (NAGASE & CO., LTD., priority 2021, published 2024).
Where two headings read alike, the source gives them in different places.

Key:
[1] = HPLC area of SRH, SRH dehydrated dimer and EGT before and 4 days after concentration (Reference Example); assay type: physicochemical; conditions: sample with 15 parts by mass SRH per 100 parts EGT, PDA 210 nm; for HPLC area, 4 days after concentration: concentrated at 30° C., left at room temperature 4 days
Procedure: In an SRH 0.108 w/w % aqueous solution (1 mL) was dissolved 7.1 mg of EGT (manufactured by Tetrahedron) to prepare a sample having 15 parts by mass of SRH with respect to 100 parts by mass of EGT.
For HPLC analysis, 100 μL of the sample was diluted 10 times with water. The remaining 900 μL was concentrated under reduced pressure using an evaporator at 30° C. After the mixture was left to stand at room temperature for 4 days, the mixture was dissolved in 0.9 mL of water. For HPLC analysis, 100 μL of the solution was diluted 10 times with water.
HPLC analysis was performed under the following conditions.
Column: YMC-Pack ODS-AQ S-5 μM, 12 nm, 250×4.6 mm I.D.
Flow rate: 0.5 mL/min, Temperature: 30° C.
Eluent: 0.1% aqueous formic acid solution
Retention time: SRH: around 6.6 minutes; SRH dehydrated dimer: around 7.5 minutes; EGT: around 8.7 minutes.

Escherichia coli = conditions: EGT at 5 mM and 50 mM; cited from earlier work
[2] = tested on: mouse bone marrow-derived macrophages; conditions: cited from earlier work; for production of cytokines (IL-6, IL-12p40, IL-1β, IL-10): toll-like receptor ligand stimulation
OT-II CD4+ T cells = conditions: 30 mM EGT; co-culture with F4/80 macrophages; cited from earlier work

HPLC area, before concentration [1] | HPLC area, 4 days after concentration [1] | SMILES | growth of Escherichia coli (Escherichia coli) | production of cytokines (IL-6, IL-12p40, IL-1β, IL-10) ([2]; 1 mM EGT) | production of cytokines (IL-6, IL-12p40, IL-1β, IL-10) ([2]; 10 mM EGT) | concentration that activates macrophages [2] | Th17 polarization of OT-II CD4+ T cells (OT-II CD4+ T cells)
13959268 | 14131254 | C[N+](C)(C)[C@@H](Cc1c[nH]c(=S)[nH]1)C(=O)[O-] [EGT, N,N,N-trimethyl-L-2-thiohistidine] | suppresses the growth | not | promoted | ≥ 10 mM | promoted
156690 | 108189 | N[C@@H](CCSC1O[C@H](CO)[C@@H](O)[C@H]1O)C(=O)O (stereo partly drawn) [SRH, S-ribosylhomocysteine] | – | – | – | – | –
